Results reported in ChEMBL document CHEMBL6134781, “In vitro identification of oridonin hybrids as potential anti-TNBC agents inducing cell cycle arrest and apoptosis by regulation of p21, γH2AX and cleaved PARP” (RSC Med Chem, 2024).

What was measured:
[1] = tested on: MDA-MB-231; assay: Cytotoxicity against human MDA-MB-231 cells assessed as inhibition of cell viability incubated for 72 hrs by SRB assay; format: functional, cell-based; details: MDA-MB-231, 72 h
[2] = tested on: HCC1806; assay: Cytotoxicity against human HCC1806 cells assessed as inhibition of cell viability incubated for 72 hrs by SRB assay; format: functional, cell-based; details: HCC1806, 72 h
[3] = tested on: MDA-MB-468; assay: Cytotoxicity against human MDA-MB-468 cells assessed as inhibition of cell viability incubated for 72 hrs by SRB assay; format: functional, cell-based; details: MDA-MB-468, 72 h
[4] = tested on: HCC1937; assay: Cytotoxicity against human HCC1937 cells assessed as inhibition of cell viability incubated for 72 hrs by SRB assay; format: functional, cell-based; details: HCC1937, 72 h
[5] = tested on: HCC1806; assay: Induction of cell cycle arrest in human HCC1806 cells assessed as accumulation at G2/M phase incubated for 16 hrs by PI staining based flow cytometry; format: functional; details: dose 1-3 µM
[6] = tested on: MDA-MB-231; assay: Induction of cell cycle arrest in human MDA-MB-231 cells assessed as accumulation at G2/M phase incubated for 16 hrs by PI staining based flow cytometry; format: functional; details: dose 1-3 µM
[7] = tested on: MDA-MB-468; assay: Induction of cell cycle arrest in human MDA-MB-468 cells assessed as accumulation at G2/M phase incubated for 16 hrs by PI staining based flow cytometry; format: functional; details: dose 1-3 µM
[8] = tested on: HCC1806; assay: Induction of cell cycle arrest in human HCC1806 cells assessed as decrease in accumulation at S phase incubated for 16 hrs by PI staining based flow cytometry; format: functional; details: dose 1-3 µM
[9] = tested on: MDA-MB-231; assay: Induction of cell cycle arrest in human MDA-MB-231 cells assessed as decrease in accumulation at S phase incubated for 16 hrs by PI staining based flow cytometry; format: functional; details: dose 1-3 µM
[10] = tested on: MDA-MB-231; assay: Induction of apoptosis in human MDA-MB-231 cells assessed as viable cells at 1 uM incubated for 16 hrs by Annexin V-FITC/PI staining based flow cytometry (reference value: 89.5 %); format: functional; details: read-out: Activity
[11] = tested on: MDA-MB-231; assay: Induction of apoptosis in human MDA-MB-231 cells assessed as early apoptotic cells at 1 uM incubated for 16 hrs by Annexin V-FITC/PI staining based flow cytometry (reference value: 1.94 %); format: functional
[12] = tested on: MDA-MB-231; assay: Induction of apoptosis in human MDA-MB-231 cells assessed as viable cells at 3 uM incubated for 16 hrs by Annexin V-FITC/PI staining based flow cytometry (reference value: 89.5 %); format: functional; details: read-out: Activity
[13] = tested on: MDA-MB-231; assay: Induction of apoptosis in human MDA-MB-231 cells assessed as late apoptotic cells at 3 uM incubated for 16 hrs by Annexin V-FITC/PI staining based flow cytometry (reference value: 4.62 %); format: functional
[14] = tested on: MDA-MB-231; assay: Induction of apoptosis in human MDA-MB-231 cells assessed as necrotic cells at 3 uM incubated for 16 hrs by Annexin V-FITC/PI staining based flow cytometry (reference value: 3.89 %); format: functional
[15] = tested on: MDA-MB-468; assay: Induction of apoptosis in human MDA-MB-468 cells assessed as viable cells at 1 uM incubated for 24 hrs by Annexin V-FITC/PI staining based flow cytometry (reference value: 88.9 %); format: functional; details: read-out: Activity
[16] = tested on: MDA-MB-468; assay: Induction of apoptosis in human MDA-MB-468 cells assessed as early apoptotic cells at 1 uM incubated for 24 hrs by Annexin V-FITC/PI staining based flow cytometry (reference value: 3.17 %); format: functional
[17] = tested on: MDA-MB-468; assay: Induction of apoptosis in human MDA-MB-468 cells assessed as late apoptotic cells at 1 uM incubated for 24 hrs by Annexin V-FITC/PI staining based flow cytometry (reference value: 3.84 %); format: functional
[18] = tested on: MDA-MB-468; assay: Induction of apoptosis in human MDA-MB-468 cells assessed as necrotic cells at 1 uM incubated for 24 hrs by Annexin V-FITC/PI staining based flow cytometry (reference value: 4.11 %); format: functional
[19] = tested on: MDA-MB-468; assay: Induction of apoptosis in human MDA-MB-468 cells assessed as late apoptotic cells at 3 uM incubated for 24 hrs by Annexin V-FITC/PI staining based flow cytometry (reference value: 3.84 %); format: functional
[20] = tested on: HCC1937; assay: Induction of apoptosis in human HCC1937 cells assessed as early apoptotic cells at 1 uM incubated for 24 hrs by Annexin V-FITC/PI staining based flow cytometry (reference value: 0.74 %); format: functional
[21] = tested on: HCC1937; assay: Induction of apoptosis in human HCC1937 cells assessed as necrotic cells at 1 uM incubated for 24 hrs by Annexin V-FITC/PI staining based flow cytometry (reference value: 0.58 %); format: functional
[22] = tested on: HCC1937; assay: Induction of apoptosis in human HCC1937 cells assessed as late apoptotic cells at 3 uM incubated for 24 hrs by Annexin V-FITC/PI staining based flow cytometry (reference value: 1.45 %); format: functional
[23] = tested on: HCC1937; assay: Induction of apoptosis in human HCC1937 cells assessed as necrotic cells at 3 uM incubated for 24 hrs by Annexin V-FITC/PI staining based flow cytometry (reference value: 0.58 %); format: functional
[24] = tested on: HCC1806; assay: Induction of apoptosis in human HCC1806 cells assessed as viable cells at 1 uM incubated for 24 hrs by Annexin V-FITC/PI staining based flow cytometry (reference value: 95.4 %); format: functional; details: read-out: Activity
[25] = tested on: HCC1806; assay: Induction of apoptosis in human HCC1806 cells assessed as early apoptotic cells at 1 uM incubated for 24 hrs by Annexin V-FITC/PI staining based flow cytometry (reference value: 3.06 %); format: functional
[26] = tested on: HCC1806; assay: Induction of apoptosis in human HCC1806 cells assessed as late apoptotic cells at 1 uM incubated for 24 hrs by Annexin V-FITC/PI staining based flow cytometry (reference value: 1.48 %); format: functional
[27] = tested on: HCC1806; assay: Induction of apoptosis in human HCC1806 cells assessed as necrotic cells at 1 uM incubated for 24 hrs by Annexin V-FITC/PI staining based flow cytometry (reference value: 0.049 %); format: functional
[28] = tested on: HCC1806; assay: Induction of apoptosis in human HCC1806 cells assessed as late apoptotic cells at 3 uM incubated for 24 hrs by Annexin V-FITC/PI staining based flow cytometry (reference value: 1.48 %); format: functional
[29] = tested on: HCC1806; assay: Induction of apoptosis in human HCC1806 cells assessed as necrotic cells at 3 uM incubated for 24 hrs by Annexin V-FITC/PI staining based flow cytometry (reference value: 0.049 %); format: functional
[30] = tested on: MDA-MB-468; assay: Induction of apoptosis in human MDA-MB-468 cells assessed as increase in cleaved PARP-1 level incubated for 24 hrs by Western blot analysis; format: functional, cell-based; details: dose 1-3 µM
[31] = tested on: HCC1806; assay: Induction of apoptosis in human HCC1806 cells assessed as increase in cleaved PARP-1 level incubated for 24 hrs by Western blot analysis; format: functional, cell-based; details: dose 1-3 µM
[32] = tested on: HCC1937; assay: Induction of apoptosis in human HCC1937 cells assessed as increase in cleaved PARP-1 level incubated for 24 hrs by Western blot analysis; format: functional, cell-based; details: dose 1-3 µM
[33] = tested on: MDA-MB-468; assay: Effect on p21 expression in human MDA-MB-468 cells at 1 to 3 uM incubated for 16 hrs by Western blot analysis; format: functional, cell-based; details: dose 1-3 µM
[34] = tested on: MDA-MB-468; assay: Induction of DNA damage in human MDA-MB-468 cells assessed as increase in gamma-H2AX level incubated for 24 hrs by Western blot analysis; format: functional, cell-based; details: dose 1-3 µM
[35] = tested on: HCC1806; assay: Induction of DNA damage in human HCC1806 cells assessed as increase in gamma-H2AX level incubated for 24 hrs by Western blot analysis; format: functional, cell-based; details: dose 1-3 µM
[36] = Stability in human plasma assessed as half life at 100 uM by LC-MS/MS analysis; format: ADME, cell-free

C=C1C(=O)[C@]23[C@H](OC(=O)C45CC6CC(CC(C6)C4)C5)[C@H]1CC[C@H]2[C@@]12CO[C@]3(O)[C@@H](O)[C@@H]1C(C)(C)CC[C@@H]2O showed an IC50 [1] of 400 nM, an IC50 [2] of 1400 nM and an IC50 [3] of 410 nM. For the same compound, the IC50 [4] was 620 nM, the Activity [5] was “Dose-dependent-effect” and the Activity [6] was “Dose-dependent-effect”. The Activity [7] was “Dose-dependent-effect”, the Activity [8] was “Dose-dependent-effect” and the Activity [9] was “Dose-dependent-effect”. For the same compound, the viability at 1 µM [10] was 93.5%, the Activity [11] was 4.31% and the viability at 3 µM [12] was 71.6%. The Activity [13] was 20.4%, the Activity [14] was 4.46% and the viability at 1 µM [15] was 87.5%. For the same compound, the Activity [16] was 5.18%, the Activity [17] was 7.11% and the Activity [18] was 0.22%. For the same compound, the Activity [19] was 3.22%, the Activity [20] was 1.23% and the Activity [21] was 0.33%. The Activity [22] was 24.1%, the Activity [23] was 0.61% and the viability at 1 µM [24] was 92.2%. It also gave an Activity [25] of 4.92%, an Activity [26] of 2.8% and an Activity [27] of 0.088%. The Activity [28] was 14.2%, the Activity [29] was 0.091% and the Activity [30] was “Dose-dependent-effect”. The Activity [31] was “Dose-dependent-effect”, the Activity [32] was “Dose-dependent-effect” and the Activity [33] was “No effect”. The Activity [34] was “Dose-dependent-effect”, the Activity [35] was “Dose-dependent-effect” and the half-life at 100 µM [36] was 2.4 h.
